Assays:
Experiment in all cases: relative viability (nuclei count vs DMSO), 5 days (fraction); higher = more cells survive
HCC-78 = test system: HCC-78
Method in brief: (§1)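 Lung cancer cell lines, seeded in 1536-well plates, were treated the following day by pin tool with a single drug or with five library-drug doses (not always all listed) in √10 steps on top of a fixed anchor-drug dose. Cells were fixed and nuclei stained in one step after 5 days, and nuclei were counted. Relative viability is the nuclei count for treated wells divided by that for vehicle wells, reported as medians of duplicate plates.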

LCLC-103H = test system: LCLC-103H
Method in brief: as §1

NCI-H2126 = test system: NCI-H2126
Method in brief: as §1

HCC-827 = test system: HCC-827
Method in brief: as §1

NCI-H2085 = test system: NCI-H2085
Method in brief: as §1

NCI-H23 = test system: NCI-H23
Method in brief: as §1

SK-LU-1 = test system: SK-LU-1
Method in brief: as §1

RERF-LC-KJ = test system: RERF-LC-KJ
Method in brief: as §1

LK-2 = test system: LK-2
Method in brief: as §1

NCI-H1975 = test system: NCI-H1975
Method in brief: as §1

NCI-H3122 = test system: NCI-H3122
Method in brief: as §1

ChaGo-K-1 = test system: ChaGo-K-1
Method in brief: as §1

HCC-366 = test system: HCC-366
Method in brief: as §1

EMC-BAC-2 = test system: EMC-BAC-2
Method in brief: as §1

LU99A = test system: LU99A
Method in brief: as §1

NCI-H2405 = test system: NCI-H2405
Method in brief: as §1

NCI-H1666 = test system: NCI-H1666
Method in brief: as §1

EPLC-272H = test system: EPLC-272H
Method in brief: as §1

SW 1573 = test system: SW 1573
Method in brief: as §1

SW 900 = test system: SW 900
Method in brief: as §1

LOU-NH91 = test system: LOU-NH91
Method in brief: as §1

LXF-289 = test system: LXF-289
Method in brief: as §1

HCC-44 = test system: HCC-44
Method in brief: as §1

`CC(C)Oc1cc(Nc2nc(N[C@@H](C)c3ccc(F)cn3)ncc2Cl)n[nH]1` [AZ23] + CC(=O)c1c(C)c2cnc(Nc3ccc(N4CCNCC4)cn3)nc2n(C2CCCC2)c1=O [Palbociclib] (partner 0.5 µM) was tested, and the relative viability (HCC-78; first compound 0.01 µM) was 0.533, the relative viability (HCC-78; first compound 0.03162 µM) was 0.463 and the relative viability (HCC-78; first compound 0.3162 µM) was 0.544. It also gave a relative viability (LCLC-103H; first compound 0.01 µM) of 0.485, a relative viability (LCLC-103H; first compound 0.03162 µM) of 0.421 and a relative viability (LCLC-103H; first compound 0.3162 µM) of 0.503. The relative viability (NCI-H2126; first compound 0.01 µM) was 0.332, the relative viability (NCI-H2126; first compound 0.03162 µM) was 0.335 and the relative viability (NCI-H2126; first compound 0.3162 µM) was 0.342. The relative viability (HCC-827; first compound 0.01 µM) was 0.47, the relative viability (HCC-827; first compound 0.03162 µM) was 0.535 and the relative viability (HCC-827; first compound 0.3162 µM) was 0.471. The relative viability (NCI-H2085; first compound 0.01 µM) was 0.435, the relative viability (NCI-H2085; first compound 0.03162 µM) was 0.469 and the relative viability (NCI-H2085; first compound 0.3162 µM) was 0.435. For the same molecule, the relative viability (NCI-H23; first compound 0.03162 µM) was 0.548, the relative viability (NCI-H23; first compound 0.3162 µM) was 0.512 and the relative viability (SK-LU-1; first compound 0.03162 µM) was 0.416. It also gave a relative viability (SK-LU-1; first compound 0.3162 µM) of 0.414, a relative viability (RERF-LC-KJ; first compound 0.01 µM) of 1.13 and a relative viability (RERF-LC-KJ; first compound 0.03162 µM) of 1.14. For the same molecule, the relative viability (RERF-LC-KJ; first compound 0.3162 µM) was 1.14, the relative viability (LK-2; first compound 0.03162 µM) was 0.544 and the relative viability (LK-2; first compound 0.3162 µM) was 0.678. For the same molecule, the relative viability (NCI-H1975; first compound 0.01 µM) was 0.534, the relative viability (NCI-H1975; first compound 0.03162 µM) was 0.703 and the relative viability (NCI-H1975; first compound 0.3162 µM) was 0.591. For the same molecule, the relative viability (NCI-H3122; first compound 0.01 µM) was 0.197, the relative viability (NCI-H3122; first compound 0.03162 µM) was 0.173 and the relative viability (NCI-H3122; first compound 0.3162 µM) was 0.23. The relative viability (ChaGo-K-1; first compound 0.01 µM) was 1.12, the relative viability (ChaGo-K-1; first compound 0.03162 µM) was 0.97 and the relative viability (ChaGo-K-1; first compound 0.3162 µM) was 1. For the same molecule, the relative viability (HCC-366; first compound 0.01 µM) was 0.303, the relative viability (HCC-366; first compound 0.03162 µM) was 0.513 and the relative viability (HCC-366; first compound 0.3162 µM) was 0.458. The relative viability (EMC-BAC-2; first compound 0.01 µM) was 0.527, the relative viability (EMC-BAC-2; first compound 0.03162 µM) was 0.523 and the relative viability (EMC-BAC-2; first compound 0.3162 µM) was 0.52. For the same molecule, the relative viability (LU99A; first compound 0.01 µM) was 0.39, the relative viability (LU99A; first compound 0.03162 µM) was 0.468 and the relative viability (LU99A; first compound 0.3162 µM) was 0.371. For the same molecule, the relative viability (NCI-H2405; first compound 0.01 µM) was 0.585, the relative viability (NCI-H2405; first compound 0.03162 µM) was 0.52 and the relative viability (NCI-H2405; first compound 0.3162 µM) was 0.589. For the same molecule, the relative viability (NCI-H1666; first compound 0.01 µM) was 0.673, the relative viability (NCI-H1666; first compound 0.03162 µM) was 0.647 and the relative viability (NCI-H1666; first compound 0.3162 µM) was 0.652. For the same molecule, the relative viability (EPLC-272H; first compound 0.03162 µM) was 0.279, the relative viability (EPLC-272H; first compound 0.3162 µM) was 0.315 and the relative viability (SW 1573; first compound 0.01 µM) was 0.58. For the same molecule, the relative viability (SW 1573; first compound 0.03162 µM) was 0.467, the relative viability (SW 1573; first compound 0.3162 µM) was 0.394 and the relative viability (SW 900; first compound 0.01 µM) was 0.653. The relative viability (SW 900; first compound 0.3162 µM) was 0.501, the relative viability (LOU-NH91; first compound 0.01 µM) was 0.574 and the relative viability (LOU-NH91; first compound 0.03162 µM) was 0.544. The relative viability (LOU-NH91; first compound 0.3162 µM) was 0.546, the relative viability (LXF-289; first compound 0.01 µM) was 0.739 and the relative viability (LXF-289; first compound 0.03162 µM) was 0.631. It also gave a relative viability (LXF-289; first compound 0.3162 µM) of 0.534, a relative viability (HCC-44; first compound 0.01 µM) of 0.982 and a relative viability (HCC-44; first compound 0.03162 µM) of 0.994. The relative viability (HCC-44; first compound 0.3162 µM) was 0.93.
Work on `CC(C)Oc1cc(Nc2nc(N[C@@H](C)c3ccc(F)cn3)ncc2Cl)n[nH]1` [AZ23] + Cc1cc(Nc2cc(N3CCN(C)CC3)nc(Sc3ccc(NC(=O)C4CC4)cc3)n2)n[nH]1 [Tozasertib] (partner 0.1 µM) yielded a relative viability (HCC-78; first compound 0.01 µM) of 0.344, a relative viability (HCC-78; first compound 0.03162 µM) of 0.482 and a relative viability (HCC-78; first compound 0.3162 µM) of 0.334. The relative viability (LCLC-103H; first compound 0.01 µM) was 0.467, the relative viability (LCLC-103H; first compound 0.03162 µM) was 0.491 and the relative viability (LCLC-103H; first compound 0.3162 µM) was 0.559. For the same molecule, the relative viability (NCI-H2126; first compound 0.01 µM) was 0.923, the relative viability (NCI-H2126; first compound 0.03162 µM) was 0.939 and the relative viability (NCI-H2126; first compound 0.3162 µM) was 0.892. For the same molecule, the relative viability (HCC-827; first compound 0.01 µM) was 0.448, the relative viability (HCC-827; first compound 0.03162 µM) was 0.445 and the relative viability (HCC-827; first compound 0.3162 µM) was 0.415. It also gave a relative viability (NCI-H2085; first compound 0.01 µM) of 0.799, a relative viability (NCI-H2085; first compound 0.03162 µM) of 0.855 and a relative viability (NCI-H2085; first compound 0.3162 µM) of 0.803. It also gave a relative viability (NCI-H23; first compound 0.03162 µM) of 0.558, a relative viability (NCI-H23; first compound 0.3162 µM) of 0.363 and a relative viability (SK-LU-1; first compound 0.03162 µM) of 0.382. It also gave a relative viability (SK-LU-1; first compound 0.3162 µM) of 0.335, a relative viability (RERF-LC-KJ; first compound 0.01 µM) of 0.532 and a relative viability (RERF-LC-KJ; first compound 0.03162 µM) of 0.569. For the same molecule, the relative viability (RERF-LC-KJ; first compound 0.3162 µM) was 0.572, the relative viability (LK-2; first compound 0.01 µM) was 0.184 and the relative viability (LK-2; first compound 0.03162 µM) was 0.222. For the same molecule, the relative viability (LK-2; first compound 0.3162 µM) was 0.195, the relative viability (NCI-H1975; first compound 0.01 µM) was 0.836 and the relative viability (NCI-H1975; first compound 0.03162 µM) was 0.977. For the same molecule, the relative viability (NCI-H1975; first compound 0.3162 µM) was 0.744, the relative viability (NCI-H3122; first compound 0.01 µM) was 0.504 and the relative viability (NCI-H3122; first compound 0.03162 µM) was 0.456. It also gave a relative viability (NCI-H3122; first compound 0.3162 µM) of 0.52, a relative viability (ChaGo-K-1; first compound 0.01 µM) of 0.234 and a relative viability (ChaGo-K-1; first compound 0.03162 µM) of 0.234. It also gave a relative viability (ChaGo-K-1; first compound 0.3162 µM) of 0.235, a relative viability (HCC-366; first compound 0.01 µM) of 0.114 and a relative viability (HCC-366; first compound 0.03162 µM) of 0.152. The relative viability (HCC-366; first compound 0.3162 µM) was 0.234, the relative viability (EMC-BAC-2; first compound 0.01 µM) was 0.262 and the relative viability (EMC-BAC-2; first compound 0.03162 µM) was 0.28. For the same molecule, the relative viability (EMC-BAC-2; first compound 0.3162 µM) was 0.296, the relative viability (LU99A; first compound 0.01 µM) was 0.243 and the relative viability (LU99A; first compound 0.03162 µM) was 0.286. It also gave a relative viability (LU99A; first compound 0.3162 µM) of 0.296, a relative viability (NCI-H2405; first compound 0.01 µM) of 0.709 and a relative viability (NCI-H2405; first compound 0.03162 µM) of 0.774. For the same molecule, the relative viability (NCI-H2405; first compound 0.3162 µM) was 0.808, the relative viability (NCI-H1666; first compound 0.01 µM) was 0.558 and the relative viability (NCI-H1666; first compound 0.03162 µM) was 0.583. It also gave a relative viability (NCI-H1666; first compound 0.3162 µM) of 0.545, a relative viability (EPLC-272H; first compound 0.01 µM) of 0.384 and a relative viability (EPLC-272H; first compound 0.03162 µM) of 0.263. The relative viability (EPLC-272H; first compound 0.3162 µM) was 0.246, the relative viability (SW 1573; first compound 0.01 µM) was 0.168 and the relative viability (SW 1573; first compound 0.03162 µM) was 0.151. It also gave a relative viability (SW 1573; first compound 0.3162 µM) of 0.17, a relative viability (SW 900; first compound 0.01 µM) of 0.536 and a relative viability (SW 900; first compound 0.03162 µM) of 0.654. It also gave a relative viability (SW 900; first compound 0.3162 µM) of 0.532, a relative viability (LOU-NH91; first compound 0.01 µM) of 0.641 and a relative viability (LOU-NH91; first compound 0.03162 µM) of 0.72. The relative viability (LOU-NH91; first compound 0.3162 µM) was 0.644, the relative viability (LXF-289; first compound 0.01 µM) was 0.222 and the relative viability (LXF-289; first compound 0.03162 µM) was 0.205. It also gave a relative viability (LXF-289; first compound 0.3162 µM) of 0.204, a relative viability (HCC-44; first compound 0.01 µM) of 0.991 and a relative viability (HCC-44; first compound 0.03162 µM) of 0.841. For the same molecule, the relative viability (HCC-44; first compound 0.3162 µM) was 1.15.
